Reference: PubChem BioAssay (NCI)
Values joined by “and” are separate entries in the source; they are usually repeats but may differ in a detail not shown here. Identical values can stand only once.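 All cell lines were grown in 96-well plates and treated with compound for 48 hours. GI50 marks 50% less growth. TGI marks complete inhibition of growth.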 Where a SMILES comes first, the peptide text is derived from it. [ ]: non-standard residue; d: D form. The star is where a group is joined. ξ: configuration not given here. NMeY = CN[C@@H](Cc1ccc(O)cc1)C(=O)O; Cbz = O=C(OCc1ccccc1)*; ξA = CC(N)C(=O)O

How the values were obtained:
Experiment in all cases: DTP human tumour cell line panel, 48 h
[1] = tested on: EKVX NSCLC
[2] = tested on: HS 578T breast
[3] = tested on: IGROV1 ovarian
[4] = tested on: M14 melanoma
[5] = tested on: MALME-3M melanoma
[6] = tested on: MDA-N
[7] = tested on: NCI/ADR-RES ovarian
[8] = tested on: SF-268 CNS
[9] = tested on: SK-OV-3 ovarian
[10] = tested on: SNB-19 CNS
[11] = tested on: UO-31 renal

`Cc1cc(-c2nc3cc(F)ccc3s2)ccc1N` was tested, and the TGI [1] was greater than 85.3 µM, the TGI [2] was greater than 82 µM and the TGI [3] was greater than 100 µM. The TGI [4] was greater than 88.8 µM, the TGI [5] was greater than 100 µM and the TGI [6] was greater than 100 µM. For the same molecule, the TGI [7] was greater than 100 µM, the TGI [8] was greater than 90.5 µM and the TGI [9] was greater than 100 µM. The TGI [10] was greater than 88.5 µM and the TGI [11] was 99.4 µM.
`C1=NN2C(c3ccccc3)=NOC2C2C(c3ccccc3)=NOC12` (stereo not given) gave a TGI [1] greater than 100 µM, a TGI [2] greater than 100 µM and a TGI [3] greater than 100 µM. For the same molecule, the TGI [4] was greater than 100 µM, the TGI [5] was greater than 100 µM and the TGI [6] was greater than 100 µM. The TGI [7] was greater than 100 µM, the TGI [8] was greater than 100 µM and the TGI [9] was greater than 100 µM. For the same molecule, the TGI [10] was greater than 100 µM and the TGI [11] was greater than 100 µM.
In the case of `OC1C2CCCCN2C[C@@H](O)[C@H]1O` (stereo not given in full), the TGI [1] is reported as greater than 100 µM, the TGI [2] is reported as greater than 100 µM and the TGI [3] is reported as greater than 100 µM. It also gave a TGI [4] greater than 100 µM, a TGI [5] greater than 100 µM and a TGI [6] greater than 100 µM. For the same molecule, the TGI [7] was greater than 100 µM, the TGI [8] was greater than 100 µM and the TGI [9] was greater than 100 µM. For the same molecule, the TGI [10] was greater than 100 µM and the TGI [11] was greater than 100 µM.
`COc1ccc(/C(C)=C2\CCCN(Cc3ccccc3)C2)cc1` was tested, and the TGI [1] was greater than 100 µM, the TGI [2] was 29.2 µM and the TGI [3] was 94.3 µM. For the same molecule, the TGI [4] was 36.7 µM, the TGI [5] was 34.8 µM and the TGI [6] was 47.7 µM. For the same molecule, the TGI [7] was 57.5 µM, the TGI [8] was 40.6 µM and the TGI [9] was 80.3 µM. The TGI [10] was 50.6 µM and the TGI [11] was 44.1 µM.
`O=C1CC(n2ccnc2)c2c(Cl)sc(Cl)c21` (stereo not given) showed a TGI [1] of 38.7 µM, a TGI [2] greater than 78.8 µM and a TGI [3] of 26.6 µM. The TGI [4] was 35.3 µM, the TGI [5] was 36.1 µM and the TGI [6] was 50.4 µM. It also gave a TGI [7] of 71.5 µM, a TGI [8] of 59.3 µM and a TGI [9] greater than 79.5 µM. The TGI [10] was 38.3 µM and the TGI [11] was 27 µM.
Work on `CCOC(=O)c1c2ccccc2n2c(=O)n(-c3ccc(OC)cc3)nnc12` yielded a TGI [1] greater than 100 µM, a TGI [2] of 55.9 µM and a TGI [3] greater than 100 µM. It also gave a TGI [4] greater than 100 µM, a TGI [5] greater than 100 µM and a TGI [6] greater than 100 µM. It also gave a TGI [7] greater than 100 µM, a TGI [8] of 45.7 µM and a TGI [9] greater than 63.9 µM. The TGI [10] was greater than 79.9 µM and the TGI [11] was greater than 100 µM.
For `CNC(=O)O/N=C1\N(C)CN(c2ccccc2)C12CCN(CCCC(=O)c1ccc(F)cc1)CC2`, the TGI [1] was greater than 100 µM, the TGI [2] was greater than 100 µM and the TGI [3] was greater than 100 µM. For the same molecule, the TGI [4] was 32.9 µM, the TGI [5] was 90.8 µM and the TGI [6] was greater than 100 µM. The TGI [7] was greater than 100 µM, the TGI [8] was greater than 100 µM and the TGI [9] was greater than 100 µM. The TGI [10] was greater than 100 µM and the TGI [11] was greater than 100 µM.
With `CC(C)(C)OC(=O)N(O)CCCn1cnc2c(NC3CC3)ncnc21` the TGI [1] was greater than 100 µM, the TGI [2] was greater than 100 µM and the TGI [3] was greater than 100 µM. For the same molecule, the TGI [4] was greater than 100 µM, the TGI [5] was greater than 100 µM and the TGI [6] was greater than 100 µM. The TGI [7] was greater than 100 µM, the TGI [8] was greater than 100 µM and the TGI [9] was greater than 100 µM. It also gave a TGI [10] greater than 100 µM and a TGI [11] greater than 100 µM.
`CC1=CC2(C)C=C[C@@H]1C(=O)[C@@]1(C)CC[C@@](O)(C(C)C)[C@H]1CC2` gave a TGI [1] of 63.1 µM, a TGI [2] of 54.9 µM and a TGI [3] of 51.7 µM. The TGI [4] was 35.8 µM, the TGI [5] was 36.2 µM and the TGI [6] was 47.5 µM. For the same molecule, the TGI [7] was 40 µM, the TGI [8] was 57.1 µM and the TGI [9] was 54.6 µM. It also gave a TGI [10] of 65.7 µM and a TGI [11] of 31.4 µM.
For `COC(=O)CN1Cc2cc(C)cc(c2O)CN(CC(=O)OC)Cc2cc(C)cc(c2O)CN(CC(=O)OC)Cc2cc(C)cc(c2O)CN(CC(=O)OC)Cc2cc(C)cc(c2O)C1`, the GI50 [1] was 35.3 µM, the TGI [1] was 50 µM and > 100 µM and the GI50 [2] was greater than 100 µM. For the same molecule, the TGI [2] was 50 µM and > 100 µM, the TGI [3] was 50 µM and the GI50 [4] was 17.7 µM. For the same molecule, the TGI [4] was 18.7 µM and 51.5 µM, the TGI [5] was 50 µM and the GI50 [6] was 84.1 µM. For the same molecule, the TGI [6] was greater than 100 µM, the GI50 [7] was 21.9 µM and the TGI [7] was 50 µM and 64 µM. For the same molecule, the GI50 [8] was greater than 100 µM, the TGI [8] was 50 µM and > 100 µM and the GI50 [9] was 35.3 µM. The TGI [9] was 46.2 µM and > 100 µM, the GI50 [10] was 18.3 µM and the TGI [10] was 50 µM and > 100 µM. For the same molecule, the GI50 [11] was 33.8 µM and the TGI [11] was 50 µM and > 100 µM.
In the case of `Nc1ncnc2c1ccn2CC#CCO`, the TGI [1] is reported as greater than 100 µM, the TGI [2] is reported as greater than 100 µM and the TGI [3] is reported as greater than 100 µM. It also gave a TGI [4] greater than 100 µM, a TGI [5] greater than 100 µM and a TGI [6] greater than 100 µM. It also gave a TGI [7] greater than 100 µM, a TGI [8] greater than 100 µM and a TGI [9] greater than 100 µM. For the same molecule, the TGI [10] was greater than 100 µM and the TGI [11] was greater than 100 µM.
In the case of `COc1ccc(COCC[C@H](C)OC2OC(CO[Si](C)(C)C(C)(C)C)C(O)C(O)C2O)cc1` (stereo not given in full), the TGI [1] is reported as greater than 100 µM, the TGI [2] is reported as greater than 100 µM and the TGI [3] is reported as greater than 100 µM. The TGI [4] was greater than 100 µM, the TGI [5] was greater than 100 µM and the TGI [6] was greater than 100 µM. The TGI [7] was greater than 100 µM, the TGI [8] was greater than 100 µM and the TGI [9] was greater than 100 µM. It also gave a TGI [10] greater than 100 µM and a TGI [11] greater than 100 µM.
`COc1ccc(C[C@@H](C(=O)N[C@@H](C)C(N)=O)N(C)C(=O)[C@@H]2CCCN2C(=O)[C@H](CC(C)C)NC(=O)C(C)NC(=O)OCc2ccccc2)cc1` (stereo not given in full) (Cbz-[ξA]LP[NMeY](Me)A-NH2) was tested, and the TGI [1] was greater than 100 µM, the TGI [2] was greater than 100 µM and the TGI [3] was greater than 100 µM. For the same molecule, the TGI [4] was greater than 100 µM, the TGI [5] was greater than 100 µM and the TGI [6] was greater than 100 µM. For the same molecule, the TGI [7] was greater than 100 µM, the TGI [8] was greater than 100 µM and the TGI [9] was greater than 100 µM. For the same molecule, the TGI [10] was greater than 100 µM and the TGI [11] was greater than 100 µM.
With `O=C1c2ccccc2C(=O)c2c1oc1cc(O)c(Cl)cc21` the TGI [1] was 29.6 µM, the TGI [2] was 15.5 µM and the TGI [3] was 31.3 µM. The TGI [4] was 6.88 µM, the TGI [5] was 2.51 µM and the TGI [6] was 3.35 µM. For the same molecule, the TGI [7] was 45.4 µM, the TGI [8] was 31.9 µM and the TGI [9] was 40 µM. For the same molecule, the TGI [10] was 28 µM and the TGI [11] was 26.6 µM.
`CN(C)c1n2c3ccc([N+](=O)[O-])cc3n3c(N(C)C)[n+]4ccccc4c3c2c2cccc[n+]12` showed a TGI [1] greater than 100 µM, a TGI [2] greater than 100 µM and a TGI [3] greater than 100 µM. It also gave a TGI [4] greater than 100 µM, a TGI [5] greater than 100 µM and a TGI [6] greater than 100 µM. The TGI [7] was greater than 100 µM, the TGI [8] was greater than 100 µM and the TGI [9] was greater than 100 µM. The TGI [10] was greater than 100 µM and the TGI [11] was greater than 100 µM.
`COC(=O)c1cc(/C=C/C(=O)Cc2ccccc2)cn1S(=O)(=O)c1ccccc1` showed a TGI [1] greater than 100 µM, a TGI [2] greater than 100 µM and a TGI [3] greater than 100 µM. It also gave a TGI [4] greater than 100 µM, a TGI [5] greater than 100 µM and a TGI [6] greater than 100 µM. For the same molecule, the TGI [7] was greater than 100 µM, the TGI [8] was greater than 100 µM and the TGI [9] was greater than 100 µM. It also gave a TGI [10] greater than 100 µM and a TGI [11] greater than 100 µM.
